Where “and” joins values, the source holds several entries; their conditions need not be identical. Equal values may be shown once. Toxic doses and inconclusive results are not listed.
System: BDF1 mice, B16 melanoma ip, median survival T/C
Experiment: NCI In Vivo Anticancer Drug Screen. Data for tumor model B16 Melanoma (intraperitoneal) in B6D2F1 (BDF1) mice
Settings: endpoint: median survival time, higher = longer survival
Method in brief: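 Transplantable tumor model; survival or tumor size measured; reported as T/C, treated over vehicle control.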

[1] = dose: 12.5 mg/kg/injection, schedule: Q01DX009 (ip), vehicle: Klucel (hydroxypropylcellulose) (HPC)
[2] = dose: 12.5 mg/kg/injection, schedule: Q04DX003 (ip), vehicle: saline
[3] = dose: 25.0 mg/kg/injection, schedule: Q04DX003 (ip), vehicle: saline
[4] = dose: 50.0 mg/kg/injection, schedule: Q01DX009 (ip), vehicle: Klucel (hydroxypropylcellulose) (HPC)
[5] = dose: 100.0 mg/kg/injection, schedule: Q01DX009 (ip), vehicle: Klucel (hydroxypropylcellulose) (HPC)
[6] = dose: 200.0 mg/kg/injection, schedule: Q01DX009 (ip), vehicle: Klucel (hydroxypropylcellulose) (HPC)
[7] = dose: 400.0 mg/kg/injection, schedule: Q01DX009 (ip), vehicle: Klucel (hydroxypropylcellulose) (HPC)
[8] = dose: 3.13 mg/kg/injection, schedule: Q01DX009 (ip), vehicle: saline with Tween-80
[9] = dose: 6.25 mg/kg/injection, schedule: Q01DX009 (ip), vehicle: saline with Tween-80
[10] = dose: 12.5 mg/kg/injection, schedule: Q01DX009 (ip), vehicle: saline with Tween-80
[11] = dose: 3.0 mg/kg/injection, schedule: Q01DX009 (ip), vehicle: saline with Tween-80
[12] = dose: 100.0 mg/kg/injection, schedule: Q01DX009 (ip), vehicle: saline with Tween-80

In the case of `O=C1C=CC(=O)O1` (tested in a mixture with another compound), the T/C [1] is reported as 124 % of control, the T/C [2] is reported as 111 % of control and the T/C (dose: 18.75 mg/kg/injection, schedule: Q04DX003 (ip), vehicle: Klucel (hydroxypropylcellulose) (HPC)) is reported as 97 % of control. For the same molecule, the T/C [3] was 96 % of control and 121 % of control, the T/C (dose: 37.5 mg/kg/injection, schedule: Q04DX003 (ip), vehicle: Klucel (hydroxypropylcellulose) (HPC)) was 150 % of control and the T/C [4] was 159 % of control. The T/C (dose: 50.0 mg/kg/injection, schedule: Q04DX003 (ip), vehicle: saline) was 120 % of control and 121 % of control, the T/C (dose: 75.0 mg/kg/injection, schedule: Q04DX003 (ip), vehicle: Klucel (hydroxypropylcellulose) (HPC)) was 161 % of control and the T/C [5] was 150 % of control. The T/C (dose: 150.0 mg/kg/injection, schedule: Q04DX003 (ip), vehicle: Klucel (hydroxypropylcellulose) (HPC)) was 108 % of control and 208 % of control, the T/C (dose: 200.0 mg/kg/injection, schedule: Q01DX009 (ip), vehicle: other) was 104 % of control and the T/C (dose: 300.0 mg/kg/injection, schedule: Q04DX003 (ip), vehicle: Klucel (hydroxypropylcellulose) (HPC)) was 152 % of control and 184 % of control. For the same molecule, the T/C (dose: 400.0 mg/kg/injection, schedule: Q04DX003 (ip), vehicle: saline) was 101 % of control.

With `Cc1c(Cl)cccc1NC(=O)c1ccccc1Cl` the T/C [5] was 100 % of control, the T/C [6] was 93 % of control and the T/C [7] was 94 % of control.

With `CCCCCCCCCCCCCC(C)NCc1ccccc1` (centres undefined) the T/C [8] was 100 % of control, the T/C [9] was 100 % of control and the T/C [10] was 100 % of control.

With `COc1ccc([I+]c2ccc(OC)cc2)cc1` the T/C (dose: 0.75 mg/kg/injection, schedule: Q01DX009 (ip), vehicle: saline with Tween-80) was 95 % of control, the T/C (dose: 1.5 mg/kg/injection, schedule: Q01DX009 (ip), vehicle: saline with Tween-80) was 95 % of control and the T/C [11] was 100 % of control.

`O=[N+]([O-])c1ccc(OCc2ccc(S(=O)(=O)F)c(Cl)c2)c(Cl)c1` was tested, and the T/C [5] was 102 % of control, the T/C [6] was 100 % of control and the T/C [7] was 97 % of control.

`COc1cc2c[n+](C)c3c(c2cc1OC)Cc1cc2c(cc1-3)OCO2` was tested, and the T/C [12] was 120 % of control.

In the case of `CN(C)CCN1C(=O)CC(c2ccccc2)Sc2ccccc21` (centres undefined), the T/C (dose: 3.12 mg/kg/injection, schedule: Q01DX009 (ip), vehicle: saline) is reported as 115 % of control, the T/C (dose: 6.25 mg/kg/injection, schedule: Q01DX009 (ip), vehicle: saline) is reported as 112 % of control and the T/C (dose: 12.5 mg/kg/injection, schedule: Q01DX009 (ip), vehicle: saline) is reported as 107 % of control. The T/C (dose: 25.0 mg/kg/injection, schedule: Q01DX009 (ip), vehicle: saline) was 97 % of control.

`OC(CC(O)(C(F)(F)F)C(F)(F)F)CC(O)(C(F)(F)F)C(F)(F)F` was tested, and the T/C [9] was 114 % of control, the T/C (dose: 6.25 mg/kg/injection, schedule: Q04DX003 (ip), vehicle: saline) was 92 % of control and the T/C [10] was 97 % of control. For the same molecule, the T/C [2] was 97 % of control, the T/C (dose: 25.0 mg/kg/injection, schedule: Q01DX009 (ip), vehicle: saline with Tween-80) was 108 % of control and the T/C [3] was 105 % of control.

For `Cc1ccc(NS(=O)(=O)c2cccc([N+](=O)[O-])c2)cc1Cl`, the T/C [12] was 107 % of control, the T/C (dose: 200.0 mg/kg/injection, schedule: Q01DX009 (ip), vehicle: saline with Tween-80) was 105 % of control and the T/C (dose: 400.0 mg/kg/injection, schedule: Q01DX009 (ip), vehicle: saline with Tween-80) was 96 % of control.

In the case of `COc1c(O)cc2c(c1OC)-c1ccc(OC)c(=O)cc1[C@@H](NC(C)=O)CC2`, the T/C (dose: 0.62 mg/kg/injection, schedule: Q01DX009 (ip), vehicle: saline with Tween-80) is reported as 123 % of control.

In the case of `O=c1oc2c(CN3CCCCC3)c(O)ccc2c2c1CCCC2`, the T/C (dose: 64.0 mg/kg/injection, schedule: Q01DX009 (ip), vehicle: Klucel (hydroxypropylcellulose) (HPC)) is reported as 112 % of control, the T/C (dose: 128.0 mg/kg/injection, schedule: Q01DX009 (ip), vehicle: Klucel (hydroxypropylcellulose) (HPC)) is reported as 98 % of control and the T/C (dose: 256.0 mg/kg/injection, schedule: Q01DX009 (ip), vehicle: Klucel (hydroxypropylcellulose) (HPC)) is reported as 106 % of control. The T/C (dose: 512.0 mg/kg/injection, schedule: Q01DX009 (ip), vehicle: Klucel (hydroxypropylcellulose) (HPC)) was 93 % of control.

In the case of `Cc1cc(C)c(C(=O)CC(=O)c2cccnc2)c(C)c1`, the T/C (dose: 100.0 mg/kg/injection, schedule: Q01DX009 (ip), vehicle: saline + Tween-80 + alcohol) is reported as 98 % of control and the T/C (dose: 200.0 mg/kg/injection, schedule: Q01DX009 (ip), vehicle: saline + Tween-80 + alcohol) is reported as 91 % of control.

`Cc1c(O)ccc(=O)n1O` was tested, and the T/C (dose: 40.0 mg/kg/injection, schedule: Q01DX009 (ip), vehicle: saline with Tween-80) was 97 % of control, the T/C (dose: 80.0 mg/kg/injection, schedule: Q01DX009 (ip), vehicle: saline with Tween-80) was 101 % of control and 102 % of control and 111 % of control and the T/C (dose: 160.0 mg/kg/injection, schedule: Q01DX009 (ip), vehicle: saline with Tween-80) was 94 % of control (2×) and 111 % of control. For the same molecule, the T/C (dose: 320.0 mg/kg/injection, schedule: Q01DX009 (ip), vehicle: saline with Tween-80) was 97 % of control.

In the case of `Cc1cccc2c(Nc3ccc(NS(C)(=O)=O)cc3)c3ccc([N+](=O)[O-])cc3nc12`, the T/C (dose: 8.0 mg/kg/injection, schedule: Q01DX009 (ip), vehicle: saline with Tween-80) is reported as 155 % of control and the T/C (dose: 12.0 mg/kg/injection, schedule: Q01DX009 (ip), vehicle: saline with Tween-80) is reported as 194 % of control.

In the case of `O=C1NC(Cc2ccc(N(CCCl)CCCl)cc2)C(=O)O1` (centres undefined), the T/C (dose: 0.1 mg/kg/injection, schedule: Q01DX009 (ip), vehicle: saline with Tween-80) is reported as 94 % of control, the T/C (dose: 0.2 mg/kg/injection, schedule: Q01DX009 (ip), vehicle: saline with Tween-80) is reported as 102 % of control and the T/C (dose: 0.4 mg/kg/injection, schedule: Q01DX009 (ip), vehicle: saline with Tween-80) is reported as 105 % of control. The T/C [11] was 157 % of control, the T/C [8] was 197 % of control and the T/C (dose: 6.0 mg/kg/injection, schedule: Q01DX009 (ip), vehicle: saline with Tween-80) was 203 % of control. For the same molecule, the T/C [10] was 155 % of control.

`CC(CC(C)O)=NCCN=C(C)CC(C)O.[Ni]` (centres undefined) was tested, and the T/C (dose: 1.5 mg/kg/injection, schedule: Q04DX003 (ip), vehicle: saline with Tween-80) was 108 % of control, the T/C (dose: 2.0 mg/kg/injection, schedule: Q04DX003 (ip), vehicle: saline with Tween-80) was 100 % of control and the T/C (dose: 3.0 mg/kg/injection, schedule: Q04DX003 (ip), vehicle: saline with Tween-80) was 94 % of control. The T/C (dose: 4.5 mg/kg/injection, schedule: Q04DX003 (ip), vehicle: saline with Tween-80) was 86 % of control.

In the case of `NCCN.[Ni+2].[O-]c1ccccc1[O-].[O-]c1ccccc1[O-]`, the T/C (dose: 1.56 mg/kg/injection, schedule: Q01DX009 (ip), vehicle: saline with Tween-80) is reported as 100 % of control, the T/C [8] is reported as 97 % of control and the T/C [9] is reported as 87 % of control. For the same molecule, the T/C [10] was 87 % of control.

`NC(N)=NC(N)=Nc1ccc(-c2ccc(N=C(N)N=C(N)N)cc2)cc1` was tested, and the T/C [9] was 102 % of control and the T/C [10] was 96 % of control.

With `O=[N+]([O-])c1ccc(S(=O)(=O)O)c([N+](=O)[O-])c1.[Ag]` the T/C (dose: 12.5 mg/kg/injection, schedule: Q04DX003 (ip), vehicle: DMSO) was 86 % of control and the T/C (dose: 25.0 mg/kg/injection, schedule: Q04DX003 (ip), vehicle: DMSO) was 86 % of control.

For `c1ccc(C(C2=NCCN2)c2ccccc2)cc1`, the T/C (dose: 25.0 mg/kg/injection, schedule: Q04DX003 (ip), vehicle: Klucel (hydroxypropylcellulose) (HPC)) was 105 % of control, the T/C (dose: 50.0 mg/kg/injection, schedule: Q04DX003 (ip), vehicle: Klucel (hydroxypropylcellulose) (HPC)) was 91 % of control and the T/C (dose: 100.0 mg/kg/injection, schedule: Q04DX003 (ip), vehicle: Klucel (hydroxypropylcellulose) (HPC)) was 95 % of control.

With `Cc1ccc(Nc2ccc([N+](=O)[O-])cc2[N+](=O)[O-])c(C)c1` the T/C [5] was 93 % of control, the T/C [6] was 98 % of control and the T/C [7] was 97 % of control.

For `O=C(Nc1ccccc1F)Nc1cccc2ccccc12`, the T/C [5] was 100 % of control, the T/C [6] was 88 % of control and the T/C [7] was 94 % of control.

`CN(C)CCCN1c2ccc(O)cc2Sc2ccc(Cl)cc21` was tested, and the T/C (dose: 3.1 mg/kg/injection, schedule: Q01DX009 (ip), vehicle: other) was 92 % of control, the T/C (dose: 50.0 mg/kg/injection, schedule: Q01DX009 (ip), vehicle: saline with Tween-80) was 117 % of control and the T/C [12] was 124 % of control.

In the case of `COc1ccc(Cl)[n+]([O-])n1`, the T/C (dose: 3.13 mg/kg/injection, schedule: Q01DX009 (ip), vehicle: Klucel (hydroxypropylcellulose) (HPC)) is reported as 92 % of control, the T/C (dose: 6.25 mg/kg/injection, schedule: Q01DX009 (ip), vehicle: Klucel (hydroxypropylcellulose) (HPC)) is reported as 95 % of control and the T/C [1] is reported as 98 % of control. The T/C (dose: 25.0 mg/kg/injection, schedule: Q01DX009 (ip), vehicle: Klucel (hydroxypropylcellulose) (HPC)) was 96 % of control, the T/C [4] was 98 % of control and the T/C [5] was 91 % of control.

Reference: PubChem BioAssay AID192 (DTP/NCI, 2004)
